From patent US7829589B2, “Sulfonamide compounds and uses thereof” (Elixir Pharmaceuticals, Inc., priority 2005, dated 2010)

Target: GHS-R (Homo sapiens, UniProt Q92847)
Test: GHS-R antagonist activity (Ki) in a cell based assay
Summary of the method: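 Transfected COS-7 cells were labelled 24 h with [^3H]-myo-inositol and preincubated 30 min at 37 °C in HEPES buffer pH 7.4 with 10 mM LiCl, optionally with 1 U/ml adenosine deaminase. Compound was applied for 45 min at 37 °C. [^3H]-inositol phosphates were extracted with perchloric acid and isolated by anion-exchange resin.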

Chain of GHS-R (Q92847 whole entry, species assumed): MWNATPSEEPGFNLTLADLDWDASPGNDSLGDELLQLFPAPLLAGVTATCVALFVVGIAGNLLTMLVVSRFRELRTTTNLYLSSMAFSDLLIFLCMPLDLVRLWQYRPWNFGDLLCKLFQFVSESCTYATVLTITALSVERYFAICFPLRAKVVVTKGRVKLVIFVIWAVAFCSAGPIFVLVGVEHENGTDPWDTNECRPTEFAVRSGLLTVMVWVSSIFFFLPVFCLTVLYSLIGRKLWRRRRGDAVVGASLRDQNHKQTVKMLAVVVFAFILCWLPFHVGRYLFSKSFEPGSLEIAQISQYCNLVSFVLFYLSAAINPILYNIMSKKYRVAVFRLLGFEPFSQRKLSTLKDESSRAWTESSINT

CCN(CC)CCCS(=O)(=O)N[C@H](CCc1ccccc1)c1nc(-c2ccccn2)no1 [Compound 39, 3-Diethylamino-propane-1-sulfonic acid [(R)-3-phenyl-1-(3-pyridin-2-yl-[1,2,4]oxadiazol-5-yl)-propyl]-amide]
Ki: 500 to 1000 nM

CCN(CC)CCS(=O)(=O)N[C@H](CCc1ccccc1)c1nc(Cc2ccccc2F)no1 [Compound 91, 2-Diethylamino-ethanesulfonic acid {(R)-1-[3-(2-fluoro-benzyl)-[1,2,4]oxadiazol-5-yl]-3-phenyl-propyl}-amide]
Ki: 100 to 500 nM

CCN(CC)CCCS(=O)(=O)N[C@H](COCc1ccccc1)c1nc(-c2ccccc2)no1 [Compound 1, 3-Diethylamino-propane-1-sulfonic acid [(R)-2-benzyloxy-1-(3-phenyl-[1,2,4]oxadiazol-5-yl)-ethyl]-amide]
Ki: 500 to 1000 nM

CCN(CC)CCCS(=O)(=O)N[C@H](CCc1ccccc1)c1nc(-c2ccccc2OC)no1 [Compound 16, 3-Diethylamino-propane-1-sulfonic acid {(R)-1-[3-(2-methoxy-phenyl)-[1,2,4]oxadiazol-5-yl]-3-phenyl-propyl}-amide]
Ki: 500 to 1000 nM

CCN(CC)CCS(=O)(=O)N[C@H](CCc1ccccc1)c1nc(Cc2cccc(F)c2)no1 [Compound 82, 2-Diethylamino-ethanesulfonic acid {(R)-1-[3-(3-fluoro-benzyl)-[1,2,4]oxadiazol-5-yl]-3-phenyl-propyl}-amide]
Ki: < 100 nM

CCN(CC)CCCS(=O)(=O)N[C@H](CCc1ccccc1)c1nc(-c2c(OC)cccc2OC)no1 [Compound 37, 3-Diethylamino-propane-1-sulfonic acid {(R)-1-[3-(2,6-dimethoxy-phenyl)-[1,2,4]oxadiazol-5-yl]-3-phenyl-propyl}-amide]
Ki: 500 to 1000 nM

CCN(CC)CCCS(=O)(=O)N[C@H](CCc1ccccc1)c1nc(C2CNc3ccccc3O2)n[nH]1 (stereo partly drawn) [Compound 136, 3-Diethylamino-propane-1-sulfonic acid {(R)-1-[5-(3,4-dihydro-2H-benzo[1,4]oxazin-2-yl)-2H-[1,2,4]triazol-3-yl]-3-phenyl-propyl}-amide]
Ki: < 100 nM

CCN(CC)CCCS(=O)(=O)N[C@H](CCc1ccccc1)c1nc(-c2ccc(F)cc2)n[nH]1 [Compound 105, 3-Diethylamino-propane-1-sulfonic acid {(R)-1-[5-(4-fluoro-phenyl)-2H-[1,2,4]triazol-3-yl]-3-phenyl-propyl}-amide]
Ki: < 100 nM

CCN(CC)CCS(=O)(=O)N[C@H](CCc1ccccc1)c1nc(-c2c(OC)cccc2OC)no1 [Compound 46, 2-Diethylamino-ethanesulfonic acid {(R)-1-[3-(2,6-dimethoxy-phenyl)-[1,2,4]oxadiazol-5-yl]-3-phenyl-propyl}-amide]
Ki: 100 to 500 nM

CCN(CC)CCCS(=O)(=O)NCc1nc(-c2ccc(OC)cc2)no1 [Compound 148, 3-Diethylamino-propane-1-sulfonic acid [3-(4-methoxy-phenyl)-[1,2,4]oxadiazol-5-ylmethyl]-amide]
Ki: 500 to 1000 nM

CCN(CC)CCCS(=O)(=O)N[C@H](CCc1ccccc1)c1nc(-c2ccc(OC)c(OC)c2)n[nH]1 [Compound 80, 3-Diethylamino-propane-1-sulfonic acid {(R)-1-[5-(3,4-dimethoxy-phenyl)-2H-[1,2,4]triazol-3-yl]-3-phenyl-propyl}-amide]
Ki: 100 to 500 nM

CCN(CC)CCCS(=O)(=O)N[C@H](CCc1ccccc1)c1nc(Cc2ccc(C(F)(F)F)cc2)no1 [Compound 117, 3-Diethylamino-propane-1-sulfonic acid {(R)-3-phenyl-1-[3-(4-trifluoromethyl-benzyl)-[1,2,4]oxadiazol-5-yl]-propyl}-amide]
Ki: < 100 nM

CCN(CC)CCCS(=O)(=O)N[C@H](CCc1ccccc1)c1nc(Cc2ccccc2)no1 [Compound 116, 3-Diethylamino-propane-1-sulfonic acid [(R)-1-(3-benzyl-[1,2,4]oxadiazol-5-yl)-3-phenyl-propyl]-amide]
Ki: 100 to 500 nM
